Series [1] deals with T1, trypsin from porcine pancreas (Sus scrofa, UniProt P00761).
T1 construct: purchased Sigma-Aldrich T0303; host or cells: porcine pancreas
Kind of series: trypsin inhibition assay. The class given is biochemical. More on the design: key: - not active; */** small/medium activity; */** small/medium activity. Conditions: class symbols.

For series [2], the target named is T2, elastase from porcine pancreas (Sus scrofa, UniProt P00772).
T2 construct: purchased Sigma-Aldrich E0258; host or cells: porcine pancreas
Kind of series: elastase inhibition assay. Conditions: highest concentration 45.4 μg/mL. More on the design: key: - not active; */** small/medium activity; */** small/medium activity. The class given is biochemical.

A further series deals with T3, Thrombin (Bos taurus, UniProt P00735).
T3 construct: purchased Sigma-Aldrich T4648
Put plainly: thrombin inhibition assay. The series is classed as biochemical. The arrangement: key: - not active; */** small/medium activity; */** small/medium activity. Conditions: highest concentration 45.4 μg/mL.

Series [3] deals with T4, protein phosphatase 1 (PP1) (Oryctolagus cuniculus, UniProt P62139).
T4 construct: purchased England Biolabs, Hitchin, UK (New England Biolabs) 754S
Kind of series: protein phosphatase 1 inhibition assay. The class given is biochemical. More on the design: key: - not active; */** small/medium activity; */** small/medium activity. Conditions: highest concentration 45.4 μg/mL.

Series [4] deals with α-chymotrypsin from bovine pancreas (Bos taurus, UniProt P00766). Kind of series: chymotrypsin inhibition assay. More on the design: key to Enzyme Inhibition Chymotrypsin (activity class): - not active; */** small/medium activity; */** small/medium activity. The class given is biochemical. Particulars: class symbols.
The target in series [5] is human leukocyte elastase (HLE). More on the design: method as in PMID 18924217. Conditions: activity of extracts; read-out: Enzyme Inhibition HLE IC50; cited from earlier work.
A further series has as its system Chymotrypsin. Conditions: cited from earlier work.
In series [6] the test system is MCF-7 breast cancer cells. Put plainly: MTT cytotoxicity assay. The series is classed as cell-based. Particulars: 24-h exposure, 0 to 500 μg/mL. How it is done: For the test, two CPs were selected: Arg^2-containing CP962 and Tyr^2-containing CP985. MCF-7 breast cancer cells were seeded at 7.5 × 10^3 cells/100 μL in a 96-well plates and incubated at 37 °C, 5% CO2 for 24 h. The cells were then treated for a further 24 h with CP962 and CP985 (0 to 500 μg/mL). After 24 h, sterile-filtered 3-(4,5-dimethylthiazol-2-yl)-2,5-diphenyltetrazolium bromide solution (MTT; 1 mg/mL) was added to each well. After 4 h incubation at 37 °C in the dark, the MTT solution was removed and formazan crystals solubilized in DMSO. The plates were shaken for 20 min, in the dark, at room temperature and absorbance was measured at 560 nm (Synergy/HT, BIOTEK, Wnooski, VT, USA). For each CP, three independent experiments were carried out and each treatment consisted of six replicates per plate. Bar charts were used to represent the viability of MCF-7 cells treated with CP962 and CP985, compared to the control (i.e., untreated cells) that represented 100% cell viability.

Results on 21 compounds are retold here after publication PMC6070996 (Marine Drugs, 2018).

Read-outs that look alike come from different tables or passages of the source.

Usually IC50 stands for the point on the concentration scale where inhibition reaches its midpoint.

T4 sequence (P62139 whole entry): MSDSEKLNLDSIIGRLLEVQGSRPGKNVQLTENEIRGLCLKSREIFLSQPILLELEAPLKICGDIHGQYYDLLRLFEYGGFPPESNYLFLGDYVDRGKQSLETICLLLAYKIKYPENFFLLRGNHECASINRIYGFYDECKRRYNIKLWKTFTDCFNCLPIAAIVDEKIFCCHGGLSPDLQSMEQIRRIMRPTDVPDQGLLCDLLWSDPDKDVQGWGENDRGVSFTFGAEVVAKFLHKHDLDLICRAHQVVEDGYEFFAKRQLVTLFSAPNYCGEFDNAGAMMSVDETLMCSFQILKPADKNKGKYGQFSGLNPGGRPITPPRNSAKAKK
T2 sequence (P00772 27-266): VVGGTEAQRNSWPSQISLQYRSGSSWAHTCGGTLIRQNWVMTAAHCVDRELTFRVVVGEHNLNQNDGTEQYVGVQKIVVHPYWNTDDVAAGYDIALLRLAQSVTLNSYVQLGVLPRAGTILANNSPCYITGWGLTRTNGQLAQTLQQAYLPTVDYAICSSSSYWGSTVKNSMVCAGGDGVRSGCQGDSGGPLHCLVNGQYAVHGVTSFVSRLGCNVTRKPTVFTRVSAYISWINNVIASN
T1 sequence (P00761 9-231): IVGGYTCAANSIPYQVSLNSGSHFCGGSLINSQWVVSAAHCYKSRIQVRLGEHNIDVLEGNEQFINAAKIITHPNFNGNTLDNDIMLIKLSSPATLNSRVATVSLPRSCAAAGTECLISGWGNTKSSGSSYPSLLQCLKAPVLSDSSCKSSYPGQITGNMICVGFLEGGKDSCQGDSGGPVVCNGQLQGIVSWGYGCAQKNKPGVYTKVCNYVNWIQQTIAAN

For the compound `CCCCCC(=O)N[C@@H](CC(=O)O)C(=O)N[C@@H]1C(=O)N[C@@H](Cc2ccc(O)cc2)C(=O)N[C@H]2CC[C@@H](O)N(C2=O)[C@@H](Cc2ccccc2)C(=O)N(C)[C@@H](CCc2ccc(O)cc2)C(=O)N[C@@H](C(C)C)C(=O)O[C@@H]1C` [CP 1027, [Thr+Tyr+Ahp+Phe+MeHty+Val]Asp+HA], in series [1], the “Enzyme Inhibition Trypsin (activity class)” value (“Enzyme Inhibition Trypsin” for short) was “-”. Besides, the “Enzyme Inhibition Elastase (activity class)” value (from here on “Enzyme Inhibition Elastase”) in series [2] is “-”. Further, the “Enzyme Inhibition Thrombin (activity class)” value (shortened to “Enzyme Inhibition Thrombin”) at Thrombin was “-”. Moreover, in series [3], the “Enzyme Inhibition Protein Phosphatase 1 (activity class)” value is “-”.
In the case of `CCCCCC(=O)N[C@@H](CC(=O)O)C(=O)N[C@@H]1C(=O)N[C@@H](Cc2ccc(O)cc2)C(=O)N[C@H]2CC[C@@H](O)N(C2=O)[C@@H](Cc2ccccc2)C(=O)N(C)[C@@H](Cc2ccc(O)cc2)C(=O)N[C@@H](C(C)C)C(=O)O[C@@H]1C` [CP 1013, [Thr+Tyr+Ahp+Phe+MeTyr+Val]Asp+HA], the “Enzyme Inhibition Chymotrypsin (activity class)” value (from here on “Enzyme Inhibition Chymotrypsin”) in series [4] was “**”. Also, the “Enzyme Inhibition Trypsin” value in series [1] was “-”. The “Enzyme Inhibition Elastase” value in series [2] was “-”. Moreover, the “Enzyme Inhibition Thrombin” value on Thrombin is on record as “-”. In series [3], the “Enzyme Inhibition Protein Phosphatase 1 (activity class)” value is on record as “-”.
Regarding “[Thr+Hph+Ahp+Thr+MePhe+Val]Ser+Pro+BA [Insulapeptolide G]”, the IC50 in series [5] is 3500 nM.
Take “[Thr+Hph+Ahp+Thr+MeTyr+Ile]Ser+Pro+BA [Insulapeptolide E]”: the concentration for half-maximal inhibition (IC50) in series [5] was 3200 nM.
Regarding `CCCC(=O)N[C@@H](CC(=O)O)C(=O)N[C@@H]1C(=O)N[C@@H](CCCNC(=N)N)C(=O)N[C@H]2CC[C@@H](O)N(C2=O)[C@@H](Cc2ccccc2)C(=O)N(C)[C@@H](Cc2ccc(O)cc2)C(=O)N[C@@H](C(C)C)C(=O)O[C@@H]1C` [CP 978, [Thr+Arg+Ahp+Phe+MeTyr+Val]Asp+BA], the “Enzyme Inhibition Elastase” value in series [2] is given as “-”. The “Enzyme Inhibition Thrombin” value on Thrombin is “-”. For the same compound, in series [3], the “Enzyme Inhibition Protein Phosphatase 1 (activity class)” value was “-”.
As for `CCCC(=O)N[C@@H](CC(=O)O)C(=O)N[C@@H]1C(=O)N[C@@H](CCCNC(=N)N)C(=O)N[C@H]2CC[C@@H](O)N(C2=O)[C@@H](Cc2ccccc2)C(=O)N(C)[C@@H](CCc2ccc(O)cc2)C(=O)N[C@@H](C(C)C)C(=O)O[C@@H]1C` [CP 992, [Thr+Arg+Ahp+Phe+MeHty+Val]Asp+BA], in series [2], the “Enzyme Inhibition Elastase” value is listed as “-”. The “Enzyme Inhibition Thrombin” value at Thrombin was “-”. Also, in series [3], the “Enzyme Inhibition Protein Phosphatase 1 (activity class)” value is “-”.
On to `CCCC(=O)N[C@@H](CC(=O)O)C(=O)N[C@@H]1C(=O)N[C@@H](Cc2ccc(O)cc2)C(=O)N[C@H]2CC[C@@H](O)N(C2=O)[C@@H](Cc2ccccc2)C(=O)N(C)[C@@H](Cc2ccccc2)C(=O)N[C@@H](C(C)C)C(=O)O[C@@H]1C` [CP 969, [Thr+Tyr+Ahp+Phe+MePhe+Val]Asp+BA], for which the “Enzyme Inhibition Chymotrypsin” value in series [4] is listed as “**”. In addition, the “Enzyme Inhibition Trypsin” value in series [1] was “-”. Besides, the “Enzyme Inhibition Elastase” value in series [2] was “-”. Besides, the “Enzyme Inhibition Thrombin” value at Thrombin is given as “-”. Also, in series [3], the “Enzyme Inhibition Protein Phosphatase 1 (activity class)” value was “-”.
“[Hmp+Leu+Ahp+Ile+diMeTyr+Ile]Cit+Ac [Insulapeptolide D]”: the 50% inhibitory concentration (IC50) in series [5] is 85 nM.
On to `CC(=O)N[C@@H](CCC(N)=O)C(=O)N[C@@H]1C(=O)N[C@@H](CC(C)C)C(=O)N[C@H]2CC[C@@H](O)N(C2=O)[C@@H](Cc2ccccc2)C(=O)N(C)[C@@H](Cc2ccc(O)cc2)C(=O)N[C@@H](C(C)C)C(=O)O[C@@H]1C` [Nostopeptin BN920, [Thr+Leu+Ahp+Phe+MeTyr+Val]Gln+Ac], for which the IC50 with Chymotrypsin (read-out: Enzyme Inhibition Chymotrypsin IC50) is 110 nM.
Consider “[Thr+Hph+Ahp+Thr+MeTyr+Val]Ser+Pro+BA [Insulapeptolide F]”, for which the concentration for half-maximal inhibition (IC50) in series [5] was 1600 nM.
On to `CC[C@H](C)[C@H]1C(=O)N(C)[C@@H](Cc2ccc(OC)cc2)C(=O)N[C@@H](C(C)C)C(=O)O[C@@H]2[C@H](C)CN(C(=O)[C@H](CCCNC(N)=O)NC(C)=O)[C@@H]2C(=O)N[C@@H](CC(C)C)C(=O)N[C@H]2CC[C@@H](O)N1C2=O` [Insulapeptolide C, [Hmp+Leu+Ahp+Ile+diMeTyr+Val]Cit+Ac], for which the half-maximal inhibitory concentration (IC50) in series [5] was 90 nM.
For `CCCCCCCC(=O)N[C@@H](CC(=O)O)C(=O)N[C@@H]1C(=O)N[C@@H](CCCNC(=N)N)C(=O)N[C@H]2CC[C@@H](O)N(C2=O)[C@@H](Cc2ccccc2)C(=O)N(C)[C@@H](Cc2ccccc2)C(=O)N[C@@H](C(C)C)C(=O)O[C@@H]1C` [CP 1018, [Thr+Arg+Ahp+Phe+MePhe+Val]Asp+OA], the “Enzyme Inhibition Chymotrypsin” value in series [4] is given as “-”. In series [2], the “Enzyme Inhibition Elastase” value was “-”. Further, the “Enzyme Inhibition Thrombin” value at Thrombin was “-”. In addition, in series [3], the “Enzyme Inhibition Protein Phosphatase 1 (activity class)” value is on record as “-”.
On to `CCCC(=O)N[C@@H](CC(=O)O)C(=O)N[C@@H]1C(=O)N[C@@H](Cc2ccc(O)cc2)C(=O)N[C@H]2CC[C@@H](O)N(C2=O)[C@@H](Cc2ccccc2)C(=O)N(C)[C@@H](CCc2ccc(O)cc2)C(=O)N[C@@H](C(C)C)C(=O)O[C@@H]1C` [CP 999, [Thr+Tyr+Ahp+Phe+MeHty+Val]Asp+BA], for which, in series [4], the “Enzyme Inhibition Chymotrypsin” value is listed as “**”. Further, the “Enzyme Inhibition Trypsin” value in series [1] is reported as “-”. The “Enzyme Inhibition Thrombin” value at Thrombin is “-”. The “Enzyme Inhibition Protein Phosphatase 1 (activity class)” value in series [3] is reported as “-”.
Consider “[Hmp+Leu+Ahp+Leu+MeTyr+Ile]Cit+Ac [Insulapeptolide B]”, for which the half-inhibitory concentration (IC50) in series [5] is 100 nM.
As to `CCCC(=O)NC(CC(=O)O)C(=O)NC1C(=O)NC(CCCNC(=N)N)C(=O)NC2CCC(O)N(C2=O)C(Cc2ccccc2)C(=O)N(C)C(Cc2ccccc2)C(=O)NC(C(C)C)C(=O)OC1C` (centres unmarked) [CP 962, [Thr+Arg+Ahp+Phe+MePhe+Val]Asp+BA], the “Enzyme Inhibition Chymotrypsin” value in series [4] is “-”. In addition, in series [1], the “Enzyme Inhibition Trypsin” value was “**”. Besides, the “Enzyme Inhibition Elastase” value in series [2] is “-”. For the same compound, the “Enzyme Inhibition Thrombin” value on Thrombin is on record as “-”. The “Enzyme Inhibition Protein Phosphatase 1 (activity class)” value in series [3] is on record as “-”. Besides, in series [6], the “cytotoxic effects on MCF-7 cells (MTT)” value was “no cytotoxic effects”.
In the case of `CCCCCC(=O)N[C@@H](CC(=O)O)C(=O)N[C@@H]1C(=O)N[C@@H](CCCNC(=N)N)C(=O)N[C@H]2CC[C@@H](O)N(C2=O)[C@@H](Cc2ccccc2)C(=O)N(C)[C@@H](Cc2ccccc2)C(=O)N[C@@H](C(C)C)C(=O)O[C@@H]1C` [CP 990, [Thr+Arg+Ahp+Phe+MePhe+Val]Asp+HA], the “Enzyme Inhibition Chymotrypsin” value in series [4] is recorded as “-”. Besides, in series [1], the “Enzyme Inhibition Trypsin” value is on record as “**”. Also, the “Enzyme Inhibition Elastase” value in series [2] was “-”. Moreover, the “Enzyme Inhibition Thrombin” value at Thrombin is “-”. Further, the “Enzyme Inhibition Protein Phosphatase 1 (activity class)” value in series [3] was “-”.
For the compound `CCCCCCCC(=O)N[C@@H](CC(=O)O)C(=O)N[C@@H]1C(=O)N[C@@H](CCCNC(=N)N)C(=O)N[C@H]2CC[C@@H](O)N(C2=O)[C@@H](Cc2ccccc2)C(=O)N(C)[C@@H](CCc2ccc(O)cc2)C(=O)N[C@@H](C(C)C)C(=O)O[C@@H]1C` [CP 1048, [Thr+Arg+Ahp+Phe+MeHty+Val]Asp+OA], the “Enzyme Inhibition Chymotrypsin” value in series [4] is “*”. Also, the “Enzyme Inhibition Trypsin” value in series [1] is “**”. The “Enzyme Inhibition Elastase” value in series [2] is “-”. In addition, the “Enzyme Inhibition Thrombin” value on Thrombin is listed as “-”. In addition, the “Enzyme Inhibition Protein Phosphatase 1 (activity class)” value in series [3] is listed as “-”.
Take `CC[C@H](C)[C@@H]1NC(=O)[C@H](Cc2ccc(O)cc2)N(C)C(=O)[C@H](Cc2ccccc2)N2C(=O)[C@H](CC[C@H]2O)NC(=O)[C@H](Cc2ccccc2)NC(=O)[C@@H](NC(=O)[C@@H](O)COP(=O)(O)O)[C@@H](C)OC1=O` [micropeptin T20]: the IC50 in the series with Chymotrypsin (read-out: chymotrypsin IC50) was 2.5 nM.
For the compound “[Hmp+Leu+Ahp+Ile+MeTyr+Val]Cit+Ac [Insulapeptolide A]”, the half-maximal inhibitory concentration (IC50) in series [5] was 140 nM.
Regarding `CCCCCC(=O)N[C@@H](CC(=O)O)C(=O)N[C@@H]1C(=O)N[C@@H](CCCNC(=N)N)C(=O)N[C@H]2CC[C@@H](O)N(C2=O)[C@@H](Cc2ccccc2)C(=O)N(C)[C@@H](Cc2ccc(O)cc2)C(=O)N[C@@H](C(C)C)C(=O)O[C@@H]1C` [CP 1006, [Thr+Arg+Ahp+Phe+MeTyr+Val]Asp+HA], the “Enzyme Inhibition Chymotrypsin” value in series [4] is “*”. Further, the “Enzyme Inhibition Trypsin” value in series [1] is recorded as “**”. Also, the “Enzyme Inhibition Elastase” value in series [2] is given as “-”. Also, at Thrombin, the “Enzyme Inhibition Thrombin” value is on record as “-”. Also, the “Enzyme Inhibition Protein Phosphatase 1 (activity class)” value in series [3] is “-”.
Take “[Thr+Hph+Ahp+Thr+MeTyr+Ile]Ser+Pro+BA [Insulapeptolide H]”: the 50% inhibitory concentration (IC50) in series [5] is 2700 nM.
